Measurements from ChEMBL document CHEMBL1133336, “Synthesis of a cyanopeptide-analogue with trypsin activating properties” (Bioorg Med Chem Lett, 2000).

Legend:
Serine protease 1 [1] = target: T1, Serine protease 1 (Homo sapiens, UniProt P07477); assay: Compound was tested for inhibition of trypsin
Plasminogen = Plasminogen (Homo sapiens, UniProt P00747); assay: Compound was tested for inhibition of plasmin
Prothrombin = Prothrombin (Homo sapiens, UniProt P00734); assay: Compound was tested for inhibition of thrombin
Serine protease 1 [2] = target: T1, Serine protease 1; assay: Percent increase in the activity of trypsin by the compound at concentration between 20 mM and 40 mM

T1 sequence (P07477 whole entry): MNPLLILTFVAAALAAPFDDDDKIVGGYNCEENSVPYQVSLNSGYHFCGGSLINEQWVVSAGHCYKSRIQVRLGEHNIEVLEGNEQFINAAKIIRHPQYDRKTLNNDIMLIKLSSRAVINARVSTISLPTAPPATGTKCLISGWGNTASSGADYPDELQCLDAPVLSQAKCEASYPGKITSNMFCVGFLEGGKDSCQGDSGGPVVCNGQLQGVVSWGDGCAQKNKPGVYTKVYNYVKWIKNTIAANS
Plasminogen, sequence (P00747 97-580 limits assumed): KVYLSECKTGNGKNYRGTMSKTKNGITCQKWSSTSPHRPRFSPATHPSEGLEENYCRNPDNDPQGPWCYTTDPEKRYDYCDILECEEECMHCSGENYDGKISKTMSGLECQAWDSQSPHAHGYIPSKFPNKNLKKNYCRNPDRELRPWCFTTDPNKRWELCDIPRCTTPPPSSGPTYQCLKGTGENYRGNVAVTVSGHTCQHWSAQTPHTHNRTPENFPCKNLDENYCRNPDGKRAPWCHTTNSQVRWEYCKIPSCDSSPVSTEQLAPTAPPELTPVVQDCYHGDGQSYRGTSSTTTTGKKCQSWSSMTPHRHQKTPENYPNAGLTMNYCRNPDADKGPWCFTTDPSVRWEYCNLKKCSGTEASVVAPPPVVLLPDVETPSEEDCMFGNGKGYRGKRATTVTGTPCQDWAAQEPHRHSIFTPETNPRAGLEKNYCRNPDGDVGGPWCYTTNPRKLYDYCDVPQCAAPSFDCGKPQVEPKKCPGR
Plasminogen, sequence (P00747 581-810 limits assumed): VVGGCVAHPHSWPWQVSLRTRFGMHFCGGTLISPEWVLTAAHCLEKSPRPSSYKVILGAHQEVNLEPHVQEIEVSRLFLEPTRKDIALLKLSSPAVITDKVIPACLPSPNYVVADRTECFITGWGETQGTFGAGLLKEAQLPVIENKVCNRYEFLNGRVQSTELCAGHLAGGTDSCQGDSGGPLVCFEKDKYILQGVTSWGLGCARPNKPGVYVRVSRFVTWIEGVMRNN

Row | SMILES | IC50 (Serine protease 1 [1]) | IC50 (Plasminogen) | IC50 (Prothrombin) | Increase (Serine protease 1 [2])
1 | N=C(N)N1CCC[C@H](NC(=O)C2CC3CCC(O)CC3N2C(=O)[C@@H](Cc2ccc(O)cc2)NC(=O)[C@H](O)Cc2ccc(OS(=O)(=O)O)cc2)C1O (stereo not given in full) | 273 nM | 409 nM | 54.6 nM | –
2 | CC[C@H](C)[C@H](NC(=O)C(O)Cc1ccc(O)cc1)C(=O)N1C2CC(OS(=O)(=O)O)CCC2C[C@H]1C(=O)NCCCCN=C(N)N (stereo not given in full) | 916 nM | 10700 nM | 15300 nM | –
3 | CCC(C)C(NC(=O)CCc1ccc(O)cc1)C(=O)N1CCN(CCOC(=O)C2CCCN2)CC1 (stereo not given) | – | – | – | 70%
4 | CC[C@H](C)[C@H](NC(=O)C(O)Cc1ccc(O)c(Cl)c1)C(=O)N1C2CC(OS(=O)(=O)O)CCC2C[C@H]1C(=O)NCCCCN=C(N)N (stereo not given in full) | 871 nM | 8710 nM | 10200 nM | –
